Measurements: US20240246977A1, “DEGRADATION OF BRUTON'S TYROSINE KINASE (BTK) BY CONJUGATION OF BTK INHIBITORS WITH E3 LIGASE LIGAND AND METHOD OF USE” (BeiGene Switzerland GmbH, priority 2021, published 2024)

Legend:
HEK-293 cells = test: HEK-293 cytotoxicity detection (CellTiter-Glo); type: cell-based; settings: Homo sapiens, 72 h, 72 h incubation, CellTiter-Glo luminescence, read-out: HEK293
Description: HEK-293 cells were treated with compounds diluted in 0.2% DMSO, dilution was done according to the following protocol: (1) making 500× stock solution in DMSO from 5 mM by 4-fold dilution, total 8 doses were included; (2) making 2× solution in cell culture medium by transferring 0.5 ul 500× stock solution into 125 ul medium; (3) adding 50 ul of 2× solution to cells for incubation of 72 h.
25 μl of the CellTiter-Glo®Reagent [(Promega)—Cat No. G7572] was added to each well in the 96-well plate. The contents were mixed for 2 minutes on an orbital shaker to induce cell lysis. The plate was then allowed to incubate at room temperature for 10 minutes to stabilize luminescent signal. Luminescence was recorded on BMG PheraStar with luminescence protocol.
The inhibition percentage of the compound was calculated by the following equation: Inhibition percentage of Compound=100−100×(Signal-low control)/(High control-low control), wherein signal=each test compound group
High control=Cell group with added DMSO and without compound, indicating cells proliferation with no inhibition;
Imax is the maximum percentage of inhibition.
The IC50 value of a compound can be obtained by fitting the following equation
(§1) Wherein, X and Y are known values, and IC50, Hillslope, Top and Bottom are the parameters obtained by fitting with software. Y is the inhibition percentage (calculated from the equation), X is the concentration of the compound; IC50 is the concentration of the compound when the 50% inhibition is reached. The smaller the IC50 value is, the stronger the inhibitory ability of the compound is. Vice versa, the higher the IC50 value is, the weaker the ability the inhibitory ability of the compound is; Hillslope represents the slope of the fitted curve, generally around 1*; Bottom represents the minimum value of the curve obtained by data fitting, which is generally 0%±20%; Top represents the maximum value of the curve obtained by data fitting, which is generally 100%±20%. The experimental data were fitted by calculating and analyzing with Dotmatics data analysis software.

BTK = BTK (Homo sapiens, UniProt Q06187); test: BTK cell degradation in TMD-8 cells, HTRF assay; type: cell-based; design: endogenous in cells; host or cells: TMD-8 cells; settings: 6 h treatment, IC50 (DC50) of BTK degradation
Chain of BTK (Q06187 whole entry): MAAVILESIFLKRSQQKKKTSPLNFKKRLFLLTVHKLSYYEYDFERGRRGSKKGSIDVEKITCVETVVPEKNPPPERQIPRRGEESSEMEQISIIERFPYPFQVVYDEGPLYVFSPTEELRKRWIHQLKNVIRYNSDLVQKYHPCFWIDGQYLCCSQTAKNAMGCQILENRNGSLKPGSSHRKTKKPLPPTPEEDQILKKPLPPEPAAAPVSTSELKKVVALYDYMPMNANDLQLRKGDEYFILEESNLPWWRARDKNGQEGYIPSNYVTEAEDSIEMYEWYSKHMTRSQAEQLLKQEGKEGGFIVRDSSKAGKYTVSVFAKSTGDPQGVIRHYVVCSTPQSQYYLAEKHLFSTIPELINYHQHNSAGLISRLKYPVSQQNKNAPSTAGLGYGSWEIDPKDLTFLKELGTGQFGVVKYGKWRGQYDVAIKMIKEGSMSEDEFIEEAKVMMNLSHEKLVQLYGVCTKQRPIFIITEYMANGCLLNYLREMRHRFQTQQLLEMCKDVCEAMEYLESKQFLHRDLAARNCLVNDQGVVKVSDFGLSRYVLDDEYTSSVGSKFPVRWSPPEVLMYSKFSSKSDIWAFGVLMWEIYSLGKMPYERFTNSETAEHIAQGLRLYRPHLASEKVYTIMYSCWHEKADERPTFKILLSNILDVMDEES
Description: TMD-8 cells were treated with compounds diluted in 0.2% DMSO, dilution was done according to the following protocol: (1) making 500× stock solution in DMSO from 1 mM by 6-fold dilution, total 8 doses were included; (2) making 2× solution in cell culture medium by transferring 0.5 μl 500× stock solution into 125 μl medium; (3) adding 15 μl of 2× solution to cells for incubation of 6 h.
After 6 h treatment, 10 μl 14×lysis buffer was added to each well; the plate was sealed and incubated for 30 min at room temperature on a plate shaker; Once the cells was lysed, 16 μL of cell lysate were transferred to a PE 384-well HTRF detection plate; 4 μL of pre-mixed HTRF antibodies were added to each well; the plate was covered with a plate sealer, and then spinned at 1000 rpm for 1 min, then incubated overnight at room temperature; the results were read on BMG PheraStar with HTRF protocol (337 nm-665 nm-620 nm).
The inhibition (degradation) percentage of the compound was calculated by the following equation: Inhibition percentage of Compound=100−100×(Signal-low control)/(High control-low control), wherein signal=each test compound group
High control=Cell group with added DMSO and without compound, indicating microplate readings without BTK degradation;
Dmax is the maximum percentage of inhibition (degradation).
The IC50 (DC50) value of a compound can be obtained by fitting the following equation
Y=Bottom+(TOP−Bottom)/(1+((IC50/X)^hillslope))
as §1, with “wherein,” for “Wherein,”

Structure (SMILES) | IC50 (HEK-293 cells) | DC50 (BTK)
NC(=O)c1c(-c2ccc(Oc3ccccc3)cc2)nn2c1Nc1ccc(NC(=O)C3CCN(CC4CCN(c5ccc6c(c5)C(=O)N(C5CCC(=O)NC5=O)C6=O)CC4)CC3)cc1CC2 (stereo not shown) [Example A4, 7-(1-((1-(2-(2,6-dioxopiperidin-3-yl)-1,3-dioxoisoindolin-5-yl)piperidin-4-yl)methyl)piperidine-4-carboxamido)-2-(4-phenoxyphenyl)-9,10-dihydro-4H-benzo[d]pyrazolo[1,5-a][1,3]diazepine-3-carboxamide] | 78.1 nM | 1.26 nM
NC(=O)c1c(-c2ccc(Oc3ccccc3)cc2)nn2c1Nc1ccc(NC3CCN(CC4CCN(c5cc6c(cc5F)C(=O)N(C5CCC(=O)NC5=O)C6=O)CC4)CC3)cc1CC2 (stereo not shown) [Example A5, 7-((1-((1-(2-(2,6-dioxopiperidin-3-yl)-6-fluoro-1,3-dioxoisoindolin-5-yl)piperidin-4-yl)methyl)piperidin-4-yl)amino)-2-(4-phenoxyphenyl)-9,10-dihydro-4H-benzo[d]pyrazolo[1,5-a][1,3]diazepine-3-carboxamide] | 83.3 nM | 1.45 nM
NC(=O)c1c(-c2ccc(Oc3ccccc3)cc2)nn2c1Nc1ccc(N3CCN(CC4CCN(c5ccc6c(c5)C(=O)N(C5CCC(=O)NC5=O)C6=O)CC4)CC3)cc1CC2 (stereo not shown) [Example A6, 7-(4-((1-(2-(2,6-dioxopiperidin-3-yl)-1,3-dioxoisoindolin-5-yl)piperidin-4-yl)methyl)piperazin-1-yl)-2-(4-phenoxyphenyl)-9,10-dihydro-4H-benzo[d]pyrazolo[1,5-a][1,3]diazepine-3-carboxamide] | 163 nM | 3.42 nM
NC(=O)c1c(-c2ccc(Oc3ccccc3)cc2)nn2c1Nc1ccc(N3CCN(c4ccc5c(c4)C(=O)N(C4CCC(=O)NC4=O)C5=O)CC3)cc1CC2 (stereo not shown) [Example A7, 7-(4-(2-(2,6-dioxopiperidin-3-yl)-1,3-dioxoisoindolin-5-yl)piperazin-1-yl)-2-(4-phenoxyphenyl)-9,10-dihydro-4H-benzo[d]pyrazolo[1,5-a][1,3]diazepine-3-carboxamide] | 178 nM | 2.51 nM
NC(=O)c1c(-c2ccc(Oc3ccccc3)cc2)nn2c1Nc1ccc(NC3CCN(c4ccc5c(c4)C(=O)N(C4CCC(=O)NC4=O)C5=O)CC3)cc1CC2 (stereo not shown) [Example A8, 7-((1-(2-(2,6-dioxopiperidin-3-yl)-1,3-dioxoisoindolin-5-yl)piperidin-4-yl)amino)-2-(4-phenoxyphenyl)-9,10-dihydro-4H-benzo[d]pyrazolo[1,5-a][1,3]diazepine-3-carboxamide] | 280 nM | 2.97 nM
NC(=O)c1c(-c2ccc(Oc3ccccc3)cc2)nn2c1Nc1ccc(C(=O)NC3CCN(c4ccc5c(c4)C(=O)N(C4CCC(=O)NC4=O)C5=O)CC3)cc1CC2 (stereo not shown) [Example A9, N7-(1-(2-(2,6-dioxopiperidin-3-yl)-1,3-dioxoisoindolin-5-yl)piperidin-4-yl)-2-(4-phenoxyphenyl)-9,10-dihydro-4H-benzo[d]pyrazolo[1,5-a][1,3]diazepine-3,7-dicarboxamide] | 65.6 nM | 2.26 nM
NC(=O)c1c(-c2ccc(Oc3ccccc3)cc2)nn2c1Nc1ccc(C(=O)NC3CCN(CC4CCN(c5cc6c(cc5F)C(=O)N(C5CCC(=O)NC5=O)C6=O)CC4)CC3)cc1CC2 (stereo not shown) [Example A10, N^7-(1-((1-(2-(2,6-dioxopiperidin-3-yl)-6-fluoro-1,3-dioxoisoindolin-5-yl)piperidin-4-yl)methyl)piperidin-4-yl)-2-(4-phenoxyphenyl)-9,10-dihydro-4H-benzo[d]pyrazolo[1,5-a][1,3]diazepine-3,7-dicarboxamide] | 121 nM | 1.75 nM
NC(=O)c1c(-c2ccc(Oc3ccccc3)cc2)nn2c1Nc1ccc(NC(=O)C3CCN(c4cccc5c4C(=O)N(C4CCC(=O)NC4=O)C5=O)CC3)cc1CC2 (stereo not shown) [Example A11, 7-(1-(2-(2,6-dioxopiperidin-3-yl)-1,3-dioxoisoindolin-4-yl)piperidine-4-carboxamido)-2-(4-phenoxyphenyl)-9,10-dihydro-4H-benzo[d]pyrazolo[1,5-a][1,3]diazepine-3-carboxamide] | 826 nM | 5.71 nM
NC(=O)c1c(-c2ccc(Oc3ccccc3)cc2)nn2c1Nc1ccc(C(=O)N[C@H]3CC[C@H](CN4CCN(c5cc6c(cc5F)C(=O)N(C5CCC(=O)NC5=O)C6=O)CC4)CC3)cc1CC2 (stereo partly shown) [Example A12, N^7-((1r,4r)-4-((4-(2-(2,6-dioxopiperidin-3-yl)-6-fluoro-1,3-dioxoisoindolin-5-yl)piperazin-1-yl)methyl)cyclohexyl)-2-(4-phenoxyphenyl)-9,10-dihydro-4H-benzo[d]pyrazolo[1,5-a][1,3]diazepine-3,7-dicarboxamide] | 396 nM | 4.58 nM
NC(=O)c1c(-c2ccc(Oc3ccccc3)cc2)nn2c1Nc1ccc(C(=O)N3CCN(CC4CCN(c5ccc6c(c5)C(=O)N(C5CCC(=O)NC5=O)C6=O)CC4)CC3)cc1CC2 (stereo not shown) [Example A13, 7-(4-((1-(2-(2,6-dioxopiperidin-3-yl)-1,3-dioxoisoindolin-5-yl)piperidin-4-yl)methyl)piperazine-1-carbonyl)-2-(4-phenoxyphenyl)-9,10-dihydro-4H-benzo[d]pyrazolo[1,5-a][1,3]diazepine-3-carboxamide] | 167 nM | 2.79 nM
NC(=O)c1c(-c2ccc(Oc3ccccc3)cc2)nn2c1Nc1ccc(C(=O)N3CCC(CN4CCN(c5cc6c(cc5F)C(=O)N(C5CCC(=O)NC5=O)C6=O)CC4)CC3)cc1CC2 (stereo not shown) [Example A14, 7-(4-((4-(2-(2,6-dioxopiperidin-3-yl)-6-fluoro-1,3-dioxoisoindolin-5-yl)piperazin-1-yl)methyl)piperidine-1-carbonyl)-2-(4-phenoxyphenyl)-9,10-dihydro-4H-benzo[d]pyrazolo[1,5-a][1,3]diazepine-3-carboxamide] | 509 nM | 3.22 nM
NC(=O)c1c(-c2ccc(Oc3ccccc3)cc2)nn2c1Nc1cc(NC(=O)C3CCN(CC4CCN(c5ccc6c(c5)C(=O)N(C5CCC(=O)NC5=O)C6=O)CC4)CC3)ccc1CC2 (stereo not shown) [Example A18, 6-(1-((1-(2-(2,6-dioxopiperidin-3-yl)-1,3-dioxoisoindolin-5-yl)piperidin-4-yl)methyl)piperidine-4-carboxamido)-2-(4-phenoxyphenyl)-9,10-dihydro-4H-benzo[d]pyrazolo[1,5-a][1,3]diazepine-3-carboxamide] | 2510 nM | 9.62 nM
NC(=O)c1c(-c2ccc(Oc3ccccc3)cc2)nn2c1Nc1cc(C(=O)N3CCC(CN4CCN(c5cc6c(cc5F)C(=O)N(C5CCC(=O)NC5=O)C6=O)CC4)CC3)ccc1CC2 (stereo not shown) [Example A20, 6-(4-((4-(2-(2,6-dioxopiperidin-3-yl)-6-fluoro-1,3-dioxoisoindolin-5-yl)piperazin-1-yl)methyl)piperidine-1-carbonyl)-2-(4-phenoxyphenyl)-9,10-dihydro-4H-benzo[d]pyrazolo[1,5-a][1,3]diazepine-3-carboxamide] | > 10000 nM | 13.4 nM
NC(=O)c1c(-c2ccc(Oc3ccccc3)cc2)nn2c1Nc1ccc(N3CCN(CC4CCN(c5ccc(N6CCC(=O)NC6=O)cc5)CC4)CC3)cc1CC2 [Example A21, 7-(4-((1-(4-(2,4-dioxotetrahydropyrimidin-1(2H)-yl)phenyl)piperidin-4-yl)methyl)piperazin-1-yl)-2-(4-phenoxyphenyl)-9,10-dihydro-4H-benzo[d]pyrazolo[1,5-a][1,3]diazepine-3-carboxamide] | 62.1 nM | 1.51 nM
